Square brackets hold non-standard residues; d marks the D form. Peptide text beside a SMILES is read from it. * marks the point of attachment. Ala(1H-tetrazol-5-yl) = N[C@@H](Cc1nnn[nH]1)C(=O)O; Ms = CS(=O)(=O)*
T1: PAC1R (Homo sapiens, UniProt P41586)
T1 construct: host or cells: CHO-K1
T1 sequence (P41586 21-468): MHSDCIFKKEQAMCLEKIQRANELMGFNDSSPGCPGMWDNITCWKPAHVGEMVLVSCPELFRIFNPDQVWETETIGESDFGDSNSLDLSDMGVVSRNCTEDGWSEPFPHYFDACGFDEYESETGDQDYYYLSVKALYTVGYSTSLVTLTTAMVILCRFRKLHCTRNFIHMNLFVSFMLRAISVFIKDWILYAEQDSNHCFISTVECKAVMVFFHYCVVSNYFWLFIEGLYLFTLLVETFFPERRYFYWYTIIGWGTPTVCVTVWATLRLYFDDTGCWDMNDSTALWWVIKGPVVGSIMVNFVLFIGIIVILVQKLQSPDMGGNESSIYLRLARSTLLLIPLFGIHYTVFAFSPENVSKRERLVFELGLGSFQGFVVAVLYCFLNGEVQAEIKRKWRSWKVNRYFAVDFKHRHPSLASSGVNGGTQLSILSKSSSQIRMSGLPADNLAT

T2: PAC1 receptor (UniProt P41586 21-468, limits assumed)
T2 sequence (looked up): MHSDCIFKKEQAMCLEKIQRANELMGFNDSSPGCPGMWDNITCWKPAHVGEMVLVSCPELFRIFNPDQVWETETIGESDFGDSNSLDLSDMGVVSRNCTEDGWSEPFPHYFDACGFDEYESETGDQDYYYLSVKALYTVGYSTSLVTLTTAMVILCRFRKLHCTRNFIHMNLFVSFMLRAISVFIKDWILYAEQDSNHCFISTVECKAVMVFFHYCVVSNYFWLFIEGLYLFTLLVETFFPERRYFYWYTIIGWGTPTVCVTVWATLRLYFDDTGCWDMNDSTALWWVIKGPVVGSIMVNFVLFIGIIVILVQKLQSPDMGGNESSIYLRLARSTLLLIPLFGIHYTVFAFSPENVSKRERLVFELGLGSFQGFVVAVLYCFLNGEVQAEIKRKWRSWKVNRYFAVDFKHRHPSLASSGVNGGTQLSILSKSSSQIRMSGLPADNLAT

T3: VPAC1 receptor (UniProt P32241 31-457, limits assumed)
T3 sequence (looked up): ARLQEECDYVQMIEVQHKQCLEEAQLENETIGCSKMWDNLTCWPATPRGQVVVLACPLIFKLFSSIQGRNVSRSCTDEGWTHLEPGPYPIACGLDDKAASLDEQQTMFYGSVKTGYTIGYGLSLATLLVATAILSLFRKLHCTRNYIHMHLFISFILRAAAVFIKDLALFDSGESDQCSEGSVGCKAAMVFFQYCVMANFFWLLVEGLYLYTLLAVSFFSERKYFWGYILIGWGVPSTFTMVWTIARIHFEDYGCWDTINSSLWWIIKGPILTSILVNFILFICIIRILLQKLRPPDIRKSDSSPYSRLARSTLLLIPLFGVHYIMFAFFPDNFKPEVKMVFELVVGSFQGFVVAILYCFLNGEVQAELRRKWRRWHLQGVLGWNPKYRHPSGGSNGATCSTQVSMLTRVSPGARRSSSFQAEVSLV


What was measured:
[1] = Peptide stability test, Tris buffer (pH 7.0), 60° C. storage, HPLC remaining rate; format: physicochemical; details: 100 μM in Tris buffer pH 7.0
Summary of the method: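 Peptides at 100 μM in Tris buffer (pH 7.0) stored 1 or 2 weeks at 60° C.; unstored sample kept at −30° C. as initial reference. Remaining peptide quantified by reversed-phase HPLC at 220 nm (formic acid/acetonitrile gradient, 40° C. column), as water-corrected remaining rate.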

[2] = system: rat trigeminal nerve cells; experiment: Axon elongation effect on cultured rat trigeminal nerve cells; format: cell-based; details: 1 μM peptide, 24 hours; N=8; Dunnett's test vs control P<0.001; FIG. 5
Experimental: Rats (Sic: Sprague-Dawley, 17-day-old, including female and male) purchased from Japan SLC, Inc. were euthanized by carbon dioxide gas inhalation and the trigeminal ganglion was harvested. The harvested trigeminal ganglion was washed with Hanks' balanced salt solution (HBSS) and then treated with collagenase A (Roche) for 30 minutes at 37° C. A neuron dispersion (Wako) was then used according to protocol for dispersion of the cells. Debris removal solution (Miltenyi biotec) and Myelin removal beads II (Miltenyi biotec) were used according to protocol to remove the debris and myelin. After suspending the isolated trigeminal nerve cells in culture solution, they were seeded onto a polylysine/laminin-coated 8-well chamber slide (Corning) at 2.5×10^3 cells/well. The culture solution used was Neurobasal-A containing B27 supplement (final concentration: 2%) and GlutaMAX (final concentration: 2 mM) and penicillin/streptomycin (final concentration: 1%). The culturing conditions were a carbon dioxide concentration of 5%, an air concentration of 95%, a humidity of 100% and a temperature of 37° C. […] The control was replaced with peptide-free culture solution. Culture medium replacement was followed by further culturing for 24 hours.
The culture medium was replaced with peptide-containing culture solution, and the rat trigeminal nerve cells cultured for 24 hours were immersed in a 2% paraformaldehyde solution at room temperature for 20 minutes for fixing. The cells were washed with PBS, and then 2% bovine serum albumin containing 0.1% TritonX-100 was added and reaction was conducted for 30 minutes. After washing with PBS, it was reacted with phospho-neurofilament H antibody (Merck, MAB1592-C) specifically recognizing neurofilaments forming the neuron bodies and neurites, for 1 hour at room temperature. After reaction for 1 hour, a fluorescent-labeled secondary antibody (Invitrogen Corp., #A-11031) was reacted at room temperature for 1 hour for fluorescent staining of the sample, and the stained cells were observed under a fluorescent microscope. The stained cell image was captured as an image from the fluorescent microscope and loaded into a computer.
In order to evaluate the extent of neurite formation by the rat trigeminal nerve cells, cells with neurites having lengths of at least twice the cell body diameter in the stained cell image in the computer were counted as neurite-forming cells, and the percentage (%) of this number of cells over the total cell count was calculated (Otori Y. Wei J Y, Barnstable C J. Invest. Ophthalmol Vis Sci (1998) 39, 972-981). The significant difference with respect to the control was determined by Dunnett's test (P<0.001).

PAC1R = biological target: T1, PAC1R; experiment: cAMP assay in PAC1R high-expressing CHO-K1 cell line; format: cell-based; details: Table 12; cAMP inducing effect, CHO-K1 PAC1R high-expressing cells
Experimental: The cells were cultured for 18 to 24 hours at 37° C. in a 5% C02 incubator, adhering the cells to the plate. […] A 5-fold dilution series was then prepared with the same Cell assay buffer and used in an assay. The cAMP assay was carried out using a Hit Hunter cAMP Assay for Biologics kit (product of DiscoveRx, Cat. No. 90-0075LM25), according to the included kit instructions. […] Next, the culture medium was removed from the CHO-K1 cell culture plate, washing was performed with PBS, and the peptide-cAMP antibody liquid mixtures were added to the cells and incubated for 30 minutes under a 5% CO2 atmosphere at 37° C. A working detection solution was then added and the culture plate was shielded from light with aluminum foil and incubated at 25° C. for 1 hour. After incubation, Solution A was added and the culture plate was shielded from light with aluminum foil and then incubated at 25° C. for 3 hours. […] The obtained value for the Relative Luminescence Unit (RLU) was analyzed with GraphPad Prism Ver 6.05 (product of Graph Pad) and the EC50 value was calculated for each peptide. […] FIG. 2 and Table 11. […] A 5-fold dilution series was then prepared with the same Cell assay buffer and used in an assay. […] A 5-fold dilution series was then prepared with the same Cell assay buffer and used in an assay.

PAC1 receptor = biological target: T2, PAC1 receptor; experiment: cell-based or functional assay
VPAC1 receptor = biological target: T3, VPAC1 receptor; experiment: cell-based or functional assay

Row | EC50 (PAC1R), cAMP inducing effect (PAC1 receptor) | EC50 (VPAC1R), cAMP inducing effect (VPAC1 receptor) | Molecule | axon elongation (percentage of neurite-forming cells) [2] | also measured
1 |  |  | CC[C@H](C)[C@H](NC(=O)CNC(=O)[C@H](Cc1nnn[nH]1)NC(=O)[C@H](CO)NC(=O)[C@H](Cc1c[nH]cn1)NS(C)(=O)=O)C(=O)N[C@@H](Cc1ccccc1)C(=O)N[C@H](C(=O)N[C@@H](Cc1nnn[nH]1)C(=O)N[C@@H](CO)C(=O)N[C@@H](Cc1ccc(O)cc1)C(=O)N[C@@H](CO)C(=O)N[C@@H](CCCNC(=N)N)C(=O)N[C@@H](Cc1ccc(O)cc1)C(=O)N[C@@H](CCCNC(=N)N)C(=O)N[C@@H](CCCCN)C(=O)N[C@@H](CCC(N)=O)C(=O)N[C@@H](CC(C)C)C(=O)N[C@@H](C)C(=O)N[C@H](C(=O)N[C@@H](CCCCN)C(=O)N[C@@H](CCCCN)C(=O)N[C@@H](Cc1ccc(O)cc1)C(=O)N[C@@H](CC(C)C)C(=O)N[C@@H](C)C(=O)N[C@@H](C)C(=O)N[C@H](C(=O)N[C@@H](CC(C)C)C(N)=O)C(C)C)C(C)C)[C@@H](C)O [Peptide 12] (Ms-HS[Ala(1H-tetrazol-5-yl)]GIFT[Ala(1H-tetrazol-5-yl)]SYSRYRKQLAVKKYLAAVL-NH2) | exhibited axon elongation-promoting effects | remaining rate after correction for water, 60° C., 1 week preservation ([1]; Table 7): 97.0%; remaining rate after correction for water, 60° C., 2 weeks preservation ([1]; Table 7): 93.6%
2 |  |  | CC[C@H](C)[C@H](NC(=O)CNC(=O)[C@H](Cc1nnn[nH]1)NC(=O)[C@H](CO)NC(=O)[C@H](Cc1c[nH]cn1)NC(C)=O)C(=O)N[C@@H](Cc1ccccc1)C(=O)N[C@H](C(=O)N[C@@H](Cc1nnn[nH]1)C(=O)N[C@@H](CO)C(=O)N[C@@H](Cc1ccc(O)cc1)C(=O)N[C@@H](CO)C(=O)N[C@@H](CCCNC(=N)N)C(=O)N[C@@H](Cc1ccc(O)cc1)C(=O)N[C@@H](CCCNC(=N)N)C(=O)N[C@@H](CCCCN)C(=O)N[C@@H](CCC(N)=O)C(=O)N[C@@H](C)C(=O)N[C@@H](C)C(=O)N[C@H](C(=O)N[C@@H](CCCCN)C(=O)N[C@@H](CCCCN)C(=O)N[C@@H](Cc1ccc(O)cc1)C(=O)N[C@@H](CC(C)C)C(=O)N[C@@H](C)C(=O)N[C@@H](C)C(=O)N[C@H](C(=O)N[C@@H](CC(C)C)C(N)=O)C(C)C)C(C)C)[C@@H](C)O [Peptide 18] (Ac-HS[Ala(1H-tetrazol-5-yl)]GIFT[Ala(1H-tetrazol-5-yl)]SYSRYRKQAAVKKYLAAVL-NH2) | exhibited axon elongation-promoting effects | remaining rate after correction for water, 60° C., 1 week preservation ([1]; Table 7): 96.7%; remaining rate after correction for water, 60° C., 2 weeks preservation ([1]; Table 7): 90.6%; EC50 (PAC1R): 0.061 nM
3 |  |  | CC[C@H](C)[C@H](NC(=O)[C@H](C)NC(=O)[C@H](Cc1nnn[nH]1)NC(=O)[C@H](CO)NC(=O)[C@H](Cc1c[nH]cn1)NS(C)(=O)=O)C(=O)N[C@@H](Cc1ccccc1)C(=O)N[C@H](C(=O)N[C@@H](Cc1nnn[nH]1)C(=O)N[C@@H](CO)C(=O)N[C@@H](Cc1ccc(O)cc1)C(=O)N[C@@H](CO)C(=O)N[C@@H](CCCNC(=N)N)C(=O)N[C@@H](Cc1ccc(O)cc1)C(=O)N[C@@H](CCCNC(=N)N)C(=O)N[C@@H](CCCCN)C(=O)N[C@@H](CCC(N)=O)C(=O)N[C@@H](C)C(=O)N[C@@H](C)C(=O)N[C@H](C(=O)N[C@@H](CCCCN)C(=O)N[C@@H](CCCCN)C(=O)N[C@@H](Cc1ccc(O)cc1)C(=O)N[C@@H](CC(C)C)C(=O)N[C@@H](C)C(=O)N[C@@H](C)C(=O)N[C@H](C(=O)N[C@@H](CC(C)C)C(N)=O)C(C)C)C(C)C)[C@@H](C)O [Peptide 31] (Ms-HS[Ala(1H-tetrazol-5-yl)]AIFT[Ala(1H-tetrazol-5-yl)]SYSRYRKQAAVKKYLAAVL-NH2) | exhibited axon elongation-promoting effects | remaining rate after correction for water, 60° C., 2 weeks preservation ([1]; Table 7-2): 90.1%
4 | 0.072 nM | 0.046 nM | HSXGIFTXSYSRYRKQXAVKKYLAAVL (N-terminal acetyl (Ac-); Tz (aspartic acid with carboxyl group replaced by tetrazole) at positions 3 and 8; norleucine at position 17; C-terminal amide (NH2)) [Peptide 8] |  | 
5 | 0.079 nM | 0.093 nM | HSXGIFTXSYSRYRKQXAVKKYLAAVL (Tz (aspartic acid with carboxyl group replaced by tetrazole) at positions 3 and 8; norleucine at position 17; C-terminal amide (NH2)) [Peptide 6] |  | 
6 | 0.112 nM | 0.114 nM | HSXGIFTXSYSRYRKQLAVKKYLAAVL (Tz (aspartic acid with carboxyl group replaced by tetrazole) at positions 3 and 8; C-terminal amide (NH2)) [Peptide 7] |  | 
7 | 0.063 nM | 0.043 nM | HSXGIFTXSYSRYRKQLAVKKYLAAVL (N-terminal acetyl (Ac-); Tz (aspartic acid with carboxyl group replaced by tetrazole) at positions 3 and 8; C-terminal amide (NH2)) [Peptide 9] |  | 

Reference: patent US20220202905A1, “COMPOSITION FOR PREVENTING OR TREATING NEUROTROPHIC KERATITIS WHICH CONTAINS PACAP PEPTIDE OR STABILIZED PACAP PEPTIDE” (SENJU PHARMACEUTICAL CO., LTD., priority 2019, published 2022)
